Results published in patent US20250352541A1, “THERAPEUTIC FOR CANCER REFRACTORY TO IMMUNE CHECKPOINT INHIBITOR” (Sumitomo Pharma Co., Ltd., priority 2022, published 2025).
pIC50: −log10 of the molar value.

Legend:
CHK1 = CHK1 (Homo sapiens (Human), UniProt O14757); assay: CHK1 inhibitory activity test (IMAP TR-FRET)
ES-2 cells = assay: Cell growth suppression experiment; format: cell-based
Experimental: ES-2 cells were obtained from the American Type Culture Collection (ATCC). These cells were cultured at 37° C. in the presence of 5% CO2 in a 10% fetal bovine serum, 1% penicillin/streptomycin containing McCoy's 5a medium.
500 cells were seeded for each well in a 384-well plate, and the evaluated compound was added so that the final concentration of DMSO would be 0.1% to culture the cells for 2 days. After completion of the culture, the cell viability rate was calculated using CellTiter-Glo® 3D Reagent (Promega, G968B).
The results of cell growth suppression test on representative compounds of the present disclosure are listed in the following table based on the ranking of I, IT, III, IV, and V (1000 nM<I, 1000 nM>TI>300 nM, 300 nM>III>100 nM, 100 nMV>IV>30 nM, 30 nM>V).

Chain of CHK1 (O14757 whole entry): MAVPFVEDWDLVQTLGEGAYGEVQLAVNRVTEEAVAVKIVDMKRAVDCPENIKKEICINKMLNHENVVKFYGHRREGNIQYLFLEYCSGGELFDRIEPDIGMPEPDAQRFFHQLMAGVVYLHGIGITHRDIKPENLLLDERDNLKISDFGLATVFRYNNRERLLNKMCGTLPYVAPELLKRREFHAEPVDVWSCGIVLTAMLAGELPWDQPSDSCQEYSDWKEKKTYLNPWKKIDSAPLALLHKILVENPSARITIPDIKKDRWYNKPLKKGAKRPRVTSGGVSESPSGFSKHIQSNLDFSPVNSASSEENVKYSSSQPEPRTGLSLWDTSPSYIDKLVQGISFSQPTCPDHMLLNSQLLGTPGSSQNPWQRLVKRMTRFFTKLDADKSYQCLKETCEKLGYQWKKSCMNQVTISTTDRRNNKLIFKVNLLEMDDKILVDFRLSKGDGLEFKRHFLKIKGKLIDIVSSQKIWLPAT

| SMILES | pIC50 (CHK1) | effect of suppressing CHK1 activity compared with prexasertib (CHK1) | cell growth suppression effect compared with prexasertib (ES-2 cells) |
| --- | --- | --- | --- |
| COc1cncc(OC[C@H](C)CN)c1-c1cc(Nc2cnc(C#N)cn2)n[nH]1 [Example 28] | 9.30 | more potent effect of suppressing CHK1 activity than prexasertib | excellent cell growth suppression effect that is equivalent to that of prexasertib |
| COc1cncc(OCC2(CN)CC2)c1-c1cc(Nc2cnc(C#N)cn2)n[nH]1 [Example 11, 5-{[5-(3-{[1-(aminomethyl)cyclopropyl]methoxy}-5-methoxypyridin-4-yl)-1H-pyrazol-3-yl]amino}pyrazine-2-carbonitrile] | 9.74 | more potent effect of suppressing CHK1 activity than prexasertib | excellent cell growth suppression effect that is equivalent to that of prexasertib |
| COc1cncc(OC[C@@H](C)CN)c1-c1cc(Nc2cnc(C#N)cn2)n[nH]1 [Example 27] | 8.46 |  | excellent cell growth suppression effect that is equivalent to that of prexasertib |
| COc1cncc(O[C@H]2C[C@H](N)[C@H]3C[C@H]32)c1-c1cc(Nc2cnc(C#N)cn2)n[nH]1 [Example 36, 5-{[5-(3-{[(1R,2S,4S,5S)-4-aminobicyclo[3.1.0]hexan-2-yl]oxy}-5-methoxypyridin-4-yl)-1H-pyrazol-3-yl]amino}pyrazine-2-carbonitrile] | 9.14 |  | excellent cell growth suppression effect that is equivalent to that of prexasertib |
| COc1cncc(OCC[C@@H](C)N)c1-c1cc(Nc2cnc(C#N)cn2)n[nH]1 [Example 9, 5-[(5-{3-[(3R)-3-aminobutoxy]-5-methoxypyridin-4-yl}-1H-pyrazol-3-yl)amino]pyrazine-2-carbonitrile] | 9.62 | more potent effect of suppressing CHK1 activity than prexasertib |  |
| COc1cncc(OCC2CNC2)c1-c1cc(Nc2cnc(C#N)cn2)n[nH]1 [Example 18, 5-({5-[3-(azetidin-3-yl)methoxy-5-methoxypyridin-4-yl]-1H-pyrazol-3-yl}amino)pyrazine-2-carbonitrile] | 9.29 | more potent effect of suppressing CHK1 activity than prexasertib |  |
| COc1ncnc(OCC2(CN)CC2)c1-c1cc(Nc2cnc(C#N)cn2)n[nH]1 [Example 23, 5-{[5-(4-{[1-(aminomethyl)cyclopropyl]methoxy}-6-methoxypyrimidin-5-yl)-1H-pyrazol-3-yl]amino}pyrazine-2-carbonitrile] | 9.10 |  | excellent cell growth suppression effect that is equivalent to that of prexasertib |
| COc1cncc(OC[C@@H](O)CN)c1-c1cc(Nc2cnc(C#N)cn2)n[nH]1 [Example 14, 5-[(5-{3-[(2S)-3-amino-2-hydroxypropoxy]-5-methoxypyridin-4-yl}-1H-pyrazol-3-yl)amino]pyrazine-2-carbonitrile] | 9.66 | more potent effect of suppressing CHK1 activity than prexasertib |  |
| COc1cncc(OCC2(C(F)F)CNC2)c1-c1cc(Nc2cnc(C#N)cn2)n[nH]1 [Example 26, 5-{[5-(3-{[3-(difluoromethyl)azetidin-3-yl]methoxy}-5-methoxypyridin-4-yl)-1H-pyrazol-3-yl]amino}pyrazine-2-carbonitrile] | 9.85 | more potent effect of suppressing CHK1 activity than prexasertib | excellent cell growth suppression effect that is equivalent to that of prexasertib |
| COc1cncc(OC[C@H]2CCNC2)c1-c1cc(Nc2cnc(C#N)cn2)n[nH]1 [Example 21, (S)-5-[(5-{3-methoxy-[5-(pyrrolidin-3-yl)methoxy]pyridin-4-yl}-1H-pyrazol-3-yl)amino]pyrazine-2-carbonitrile] | 9.54 | more potent effect of suppressing CHK1 activity than prexasertib | excellent cell growth suppression effect that is equivalent to that of prexasertib |
| COc1ccnc(OCCCN)c1-c1cc(Nc2cnc(Cl)cn2)n[nH]1 [Example 15, N-{5-[2-(3-aminopropoxy)-4-methoxypyridin-3-yl]-1-H-pyrazol-3-yl}-5-chloropyrazin-2-amine] | 9.59 | more potent effect of suppressing CHK1 activity than prexasertib | excellent cell growth suppression effect that is equivalent to that of prexasertib |
| COc1nccc(OCC2(O)CNC2)c1-c1cc(Nc2cnc(C#N)cn2)n[nH]1 [Example 7, 5-[(5-{4-[(3-hydroxyazetidin-3-yl)methoxy]-2-methoxypyridin-3-yl}-1H-pyrazol-3-yl)amino]pyrazine-2-carbonitrile] | 9.68 | more potent effect of suppressing CHK1 activity than prexasertib |  |
| COc1cncc(OCC[C@H](C)N)c1-c1cc(Nc2cnc(C#N)cn2)n[nH]1 [Example 10, 5-[(5-{3-[(3S)-3-aminobutoxy]-5-methoxypyridin-4-yl}-1H-pyrazol-3-yl)amino]pyrazine-2-carbonitrile] | 9.52 | more potent effect of suppressing CHK1 activity than prexasertib |  |
| N#Cc1cnc(Nc2cc(-c3c(OCF)cncc3OCCCN)[nH]n2)cn1 [Example 24, 5-({5-[3-(3-aminopropoxy)-5-(fluoromethoxy)pyridin-4-yl]-1H-pyrazol-3-yl}amino)pyrazine-2-carbonitrile] | 9.52 | more potent effect of suppressing CHK1 activity than prexasertib |  |
| COc1cncc(O[C@H](C)C2(O)CNC2)c1-c1cc(Nc2cnc(C#N)cn2)n[nH]1 [Example 34, 5-[(5-{3-[(1R)-1-(3-hydroxyazetidin-3-yl)ethoxy]-5-methoxypyridin-4-yl}-1H-pyrazol-3-yl)amino]pyrazine-2-carbonitrile] | 8.74 |  |  |
| COc1cc(Cl)nc(OCCCN)c1-c1cc(Nc2cnc(C#N)cn2)n[nH]1 [Example 2, 5-({5-[2-(3-aminopropoxy)-6-chloro-4-methoxypyridin-3-yl]-1H-pyrazol-3-yl}amino)pyrazine-2-carbonitrile] | 9.66 | more potent effect of suppressing CHK1 activity than prexasertib |  |
| COc1cncc(O[C@@H]2CC[C@@H](N)C2)c1-c1cc(Nc2cnc(C#N)cn2)n[nH]1 [Example 32, 5-{[5-(3-{[(1R,3R)-3-aminocyclopentyl]oxy}-5-methoxypyridin-4-yl)-1H-pyrazol-3-yl]amino}pyrazine-2-carbonitrile] |  |  | excellent cell growth suppression effect that is equivalent to that of prexasertib |
